The inhibition is the change of the read-out against control, counted positive when it falls. Broadly, the IC50 is the concentration needed to halve the response being measured.

Active and inactive are the calls of the source. No cut-off for these calls is given here.

35 molecules from ChEMBL document CHEMBL5370552, “Rational design and evaluation of 2-((pyrrol-2-yl)methylene)thiophen-4-ones as RNase L inhibitors” (Eur J Med Chem, 2023) can be followed below.

Experiment [1] addresses T1, 2-5A-dependent ribonuclease (Homo sapiens) (UniProt Q05823).
T1 sequence (whole entry): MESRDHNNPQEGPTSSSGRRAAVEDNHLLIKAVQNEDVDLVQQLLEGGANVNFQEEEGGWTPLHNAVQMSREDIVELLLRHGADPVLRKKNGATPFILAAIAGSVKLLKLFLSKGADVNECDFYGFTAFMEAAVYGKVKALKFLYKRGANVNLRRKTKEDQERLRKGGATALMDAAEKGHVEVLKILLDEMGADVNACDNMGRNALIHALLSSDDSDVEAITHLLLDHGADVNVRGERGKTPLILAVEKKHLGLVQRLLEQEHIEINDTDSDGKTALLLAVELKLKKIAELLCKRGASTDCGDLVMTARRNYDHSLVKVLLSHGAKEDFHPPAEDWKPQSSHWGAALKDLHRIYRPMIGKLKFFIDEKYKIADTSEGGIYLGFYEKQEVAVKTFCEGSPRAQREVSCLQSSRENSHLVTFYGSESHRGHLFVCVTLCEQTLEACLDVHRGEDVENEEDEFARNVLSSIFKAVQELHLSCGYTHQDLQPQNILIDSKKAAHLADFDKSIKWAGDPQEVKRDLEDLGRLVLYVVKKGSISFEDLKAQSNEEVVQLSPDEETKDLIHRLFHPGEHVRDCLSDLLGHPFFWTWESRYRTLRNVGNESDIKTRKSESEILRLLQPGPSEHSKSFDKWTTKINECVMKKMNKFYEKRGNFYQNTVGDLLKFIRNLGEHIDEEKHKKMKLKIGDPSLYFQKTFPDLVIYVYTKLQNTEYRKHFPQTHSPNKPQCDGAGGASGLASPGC
Briefly: Inhibition of his6-tagged full length human RNase L expressed in insect cells at 250 uM incubated for 30 min by FRET assay relative to control.

Experiment [2] has as its target T1, 2-5A-dependent ribonuclease (Homo sapiens). Briefly: Binding affinity to his6-tagged full length human RNase L expressed in insect cells by biolayer interferometry analysis. For orientation: BLI is a label-free optical method that tracks binding on a fibre tip over time.
For experiment [3] the target is unchanged. Briefly: Inhibition of his6-tagged full length human RNase L expressed in insect cells at 250 uM incubated for 30 mins in presence of 2-5A and ATP by gel based RNA cleavage assay relative to control.
The target in experiment [4] is T2, 2-5A-dependent ribonuclease (Homo sapiens, UniProt Q05823).
T2 sequence (Q05823 whole entry): T1 sequence (whole entry)
Briefly: Inhibition of his6-tagged full length human RNase L expressed in insect cells incubated for 30 min by FRET assay.

For experiment [5], the target named is T1, 2-5A-dependent ribonuclease (Homo sapiens). Briefly: Inhibition of his6-tagged full length human RNase L expressed in insect cells incubated for 30 mins in presence of 2-5A and ATP by gel based RNA cleavage assay. The settings on record: dose 250.0 µM.
Experiment [6] has the same target. Briefly: Inhibition of his6-tagged full length human RNase L expressed in insect cells at 130 uM incubated for 30 min by FRET assay relative to control.
Experiment [7] has the same target. The experiment in a line: Inhibition of RNase L in human HeLa cells assessed as ribosomal RNA degradation at 10 uM incubated for 4 hrs by NanoDrop spectrophotometry analysis relative to control. The experiment is classed as cell-based.
The target is the same in experiment [8]. Briefly: Inhibition of RNase L in human HeLa cells assessed as ribosomal RNA degradation at 2 uM incubated for 4 hrs by NanoDrop spectrophotometry analysis. The experiment is classed as cell-based.
Experiment [9] shares this target. The experiment in a line: Potency index, ratio of sunitinib IC50 to test compound IC50 for inhibition of his6-tagged full length human RNase L expressed in insect cells incubated for 30 min by FRET assay.

For `CCN(CC)CCNC(=O)c1c(C)[nH]c(/C=C2/SC(Nc3cccc(F)c3)=C(C(=O)NCCNC(=O)OC(C)(C)C)C2=O)c1C`, the inhibition in [1] amounted to 100%.
For `CCN(CC)CCNC(=O)c1c(C)[nH]c(/C=C2/SC(Nc3cccc(Cl)c3)=C(C(=O)NCCN)C2=O)c1C`, the outcome in experiment [2] was Active. For the same molecule, the inhibition in experiment [3] was 100%; in [5], “Dose-Dependent Effect”; in experiment [1], 101%. Moreover, the half-maximal inhibitory concentration (IC50) in experiment [4] turned out to be 12 µM.
For `CCN(CC)CCNC(=O)c1c(C)[nH]c(/C=C2/SC(Nc3cccc(C(F)(F)F)c3)=C(C(=O)NC)C2=O)c1C`, the inhibition in experiment [6] turned out to be 97%.
On to `CCOC(=O)C1=C(Nc2ccc(C)cc2)S/C(=C/c2[nH]c(C)c(C(=O)NCCN(CC)CC)c2C)C1=O`, for which the inhibition in [1] was 83%.
As to `CCN(CC)CCNC(=O)c1c(C)[nH]c(/C=C2/OC(Nc3ccccc3)=C(C(=O)NC)C2=O)c1C`, the inhibition in [1] was found to be 74%.
Take `CCN(CC)CCNC(=O)c1c(C)[nH]c(/C=C2/SC(Nc3ccc(F)cc3)=C(C(=O)NC)C2=O)c1C`: the inhibition in experiment [1] was less than 5%.
Turning to `CCN(CC)CCNC(=O)c1c(C)[nH]c(/C=C2\C(=O)Nc3ccc(F)cc32)c1C`, the inhibition in experiment [1] worked out at 83%.
Same read-out and setting: under `CCN(CC)CCNC(=O)c1c(C)[nH]c(/C=C2/SC(Nc3cccc(F)c3)=C(C(=O)NCc3ccccc3)C2=O)c1C` stands 99%.
`CCN(CC)CCNC(=O)c1c(C)[nH]c(/C=C2/SC(Nc3cccc(Cl)c3)=C(C(=O)NCCNC(=O)OC(C)(C)C)C2=O)c1C`: the inhibition in experiment [1] came out at 96%.
Still for that read-out and setting: under `CCOC(=O)C1=C(Nc2ccc([N+](=O)[O-])cc2)S/C(=C/c2[nH]c(C)c(C(=O)NCCN(CC)CC)c2C)C1=O` stands 67%; under `CCOC(=O)C1=C(Nc2ccc(OC)cc2)S/C(=C/c2[nH]c(C)c(C(=O)NCCN(CC)CC)c2C)C1=O`, 70%.
`CCN(CC)CCNC(=O)c1c(C)[nH]c(/C=C2/SC(Nc3ccccc3)=C(C(=O)NCCN)C2=O)c1C` returned an IC50 in experiment [4] of 28 µM. Further, in experiment [1], the inhibition was 101%.
Turning to `CCOC(=O)C1=C(Nc2ccc(OC)c(OC)c2)S/C(=C/c2[nH]c(C)c(C(=O)NCCN(CC)CC)c2C)C1=O`, the inhibition in experiment [1] came to 79%.
Still for that read-out and setting: under `CCOC(=O)C1=C(Nc2cccc(OC)c2)S/C(=C/c2[nH]c(C)c(C(=O)NCCN(CC)CC)c2C)C1=O` stands 78%; under `CCN(CC)CCNC(=O)c1c(C)[nH]c(/C=C2/OC(Nc3ccccc3)=C(C(=O)NCCN)C2=O)c1C`, 93%.
`CCN(CC)CCNC(=O)c1c(C)[nH]c(/C=C2/SC(Nc3cccc(F)c3)=C(C(=O)NCCN)C2=O)c1C`: the result in [2] was Active. Besides, the inhibition in experiment [3] is 100%; in experiment [5] it was “Dose-Dependent Effect”; in [7], 100%; in experiment [1], 102%. The molecule further displayed an IC50 in experiment [4] of 16 µM. For the same molecule, in experiment [8], the inhibition entry was “Active”.
As to `CCOC(=O)C1=C(Nc2ccc(C(F)(F)F)cc2)S/C(=C/c2[nH]c(C)c(C(=O)NCCN(CC)CC)c2C)C1=O`, the inhibition in [1] amounted to 90%.
For `CCN(CC)CCNC(=O)c1c(C)[nH]c(/C=C2/SC(Nc3ccccc3)=C(C(=O)NC)C2=O)c1C`, the inhibition in experiment [1] is 67%.
The molecule `CCN(CC)CCNC(=O)c1c(C)[nH]c(/C=C2/OC(Nc3cccc(F)c3)=C(C(=O)NCCN)C2=O)c1C` had an IC50 in experiment [4] of 41.9 µM. For the same molecule, the inhibition in [1] was determined as 97%.
Take `CCOC(=O)C1=C(Nc2cccc(F)c2)S/C(=C/c2[nH]c(C)c(C(=O)NCCN(CC)CC)c2C)C1=O`: the inhibition in [1] came to 76%.
On the same count and under the same terms, under `CCOC(=O)C1=C(Nc2ccccc2Br)S/C(=C/c2[nH]c(C)c(C(=O)NCCN(CC)CC)c2C)C1=O` stands 85%.
As for `CCN(CC)CCNC(=O)c1c(C)[nH]c(/C=C2/SC(Nc3cccc([N+](=O)[O-])c3)=C(C(=O)NC)C2=O)c1C`, in [6], the inhibition was 60%.
Still for that read-out and setting: the value for `CCN(CC)CCNC(=O)c1c(C)[nH]c(/C=C2/SC(Nc3cccc(Cl)c3)=C(C(=O)NC)C2=O)c1C` was 88%.
Regarding `CCOC(=O)C1=C(Nc2ccc(F)cc2)S/C(=C/c2[nH]c(C)c(C(=O)NCCN(CC)CC)c2C)C1=O`, the inhibition in [1] came out at 80%.
As for `CCN(CC)CCNC(=O)c1c(C)[nH]c(/C=C2/SC(Nc3cccc(OC)c3)=C(C(=O)NC)C2=O)c1C`, in experiment [1], the inhibition is 99%.
As for `CCN(CC)CCNC(=O)c1c(C)[nH]c(/C=C2/SC(Nc3cccc(OC)c3)=C(C(=O)NCCNC(=O)OC(C)(C)C)C2=O)c1C`, in experiment [6], the inhibition turned out to be 49%.
Turning to `CCOC(=O)C1=C(Nc2ccc(CC)cc2)S/C(=C/c2[nH]c(C)c(C(=O)NCCN(CC)CC)c2C)C1=O`, in experiment [1], the inhibition came to 83%.
Same read-out and setting: the value for `CCOC(=O)C1=C(Nc2cccc([N+](=O)[O-])c2)S/C(=C/c2[nH]c(C)c(C(=O)NCCN(CC)CC)c2C)C1=O` was 76%; that for `CCN(CC)CCNC(=O)c1c(C)[nH]c(/C=C2/OC(Nc3cccc(F)c3)=C(C(=O)NCCNC(=O)OC(C)(C)C)C2=O)c1C` was 84%; that for `CCOC(=O)C1=C(Nc2ccccc2)S/C(=C/c2[nH]c(C)c(C(=O)NCCN(CC)CC)c2C)C1=O` was 78%.
As for `CCN(CC)CCNC(=O)c1c(C)[nH]c(/C=C2/SC(Nc3cccc(F)c3)=C(C(=O)NC)C2=O)c1C`, the inhibition in experiment [1] was determined as 58%.
Regarding `CCN(CC)CCNC(=O)c1c(C)[nH]c(/C=C2/SC(Nc3ccccc3)=C(C(=O)NCCNC(=O)OC(C)(C)C)C2=O)c1C`, in experiment [1], the inhibition came out at 75%.
With `CCN(CC)CCNC(=O)c1c(C)[nH]c(/C=C2/SC(Nc3cccc(OC)c3)=C(C(=O)NCCN)C2=O)c1C`, the result in experiment [2] was Active. Also, the figures for the inhibition in experiment [3], in experiment [5] and in experiment [1] were 100%, “Dose-Dependent Effect” and 101%, respectively. Half-maximal inhibition in experiment [4] (IC50) required 13 µM. Also, in [9], the Ratio IC50 amounted to 30.
Turning to `CCN(CC)CCNC(=O)c1c(C)[nH]c(/C=C2/OC(Nc3ccccc3)=C(C(=O)NCCNC(=O)OC(C)(C)C)C2=O)c1C`, the inhibition in experiment [1] stood at 79%.
Same read-out and setting: the value for `CCOC(=O)C1=C(Nc2ccc(Br)cc2)S/C(=C/c2[nH]c(C)c(C(=O)NCCN(CC)CC)c2C)C1=O` was 90%.
